#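 A five-concentration, 48-hour dose response in 96-well plates underlies each endpoint, interpolated linearly between surrounding concentrations. GI50 marks 50% less growth. TGI: total growth inhibition.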
# Legend:
# Experiment in all cases: NCI anticancer screen, dose series, 48 h
# [1] = test system: HCT-15 colon
# [2] = test system: M14 melanoma
# [3] = test system: MOLT-4 leukemia
# [4] = test system: RPMI-8226 leukemia
# [5] = test system: SK-MEL-28 melanoma
# [6] = test system: SK-OV-3 ovarian
# [7] = test system: U251 CNS
SMILES,TGI [1] [µM],TGI [2] [µM],TGI [3] [µM],TGI [4] [µM],TGI [5] [µM],TGI [6] [µM],TGI [7] [µM],GI50 [1] [µM],GI50 [2] [µM],GI50 [3] [µM],GI50 [4] [µM],GI50 [6] [µM],GI50 [7] [µM],GI50 [5] [µM]
CC(=O)Nc1c(Nc2ccccc2)[nH]c(C)nc1=S,> 100,> 100,> 100,> 100,> 100,> 100,–,–,–,–,–,–,–,–
COCN1COCN=C1NC#N,> 100,> 100,> 100,> 100,> 100,> 100,> 100,–,–,–,–,–,–,–
C[N+](C)(C)CC(=O)N/N=C(/C(=O)Nc1ccc(Br)cc1)C1C(=O)NC(=O)NC1=O,> 100,> 100,> 100,> 100,> 100,> 100,> 100,–,–,–,–,–,–,–
COC(=O)N/N=C(\C)c1c(O)cc(C)oc1=O,> 100,> 100,> 100,–,> 100,> 100,> 100,–,–,–,–,–,–,–
CC1=C(/C=C/C(C)=C/C2CC(N(C)C)=CC(=O)O2)C(C)(C)CCC1 (centres undefined),–,28.3,19.9,19.3,30.9,30.3,28.7,–,–,–,–,–,–,–
O=C([CH-]C(=O)c1ccccc1)c1ccccc1.[CH-]1CCCCC1.[CH-]1CCCCC1.[CH-]1CCCCC1.[Sn+4],18.4,22.4,7.47,5.22,–,68.6,20.8,5.67,8.3,2.41,2.32,43.5,6.86,–
CC(=O)c1c2c(cc3c1CC1(C3)Cc3cc4c(c(C(C)=O)c3C1)CCC4)CCC2,–,> 100,> 100,–,> 100,–,> 100,–,–,–,–,–,–,–
CN(C)CCNC(=O)c1cccc2cc3c(Cl)cccc3nc12,6.37,–,0.556,14.2,5.4,10.8,6.3,–,–,–,–,–,–,–
CC(=O)[O-].Cn1ccnc1CNCc1nccn1C.[Cu+2].[O-][Cl+3]([O-])([O-])[O-],–,> 100,> 100,> 100,> 100,> 100,> 100,–,> 100,> 100,> 100,> 100,33.7,> 100
O=C(O)[C@H](NS(=O)(=O)c1ccc(F)cc1)c1ccccc1,> 100,> 100,> 100,> 100,> 100,> 100,> 100,–,–,–,–,–,–,–
CCOC(=O)C(=O)CC1=Nc2ccccc2SC(c2cccc(C)c2)C1 (centres undefined),35.7,35.3,47.9,67.3,29.3,–,31,–,–,–,–,–,–,–
Cc1cccc(C)c1NC(=O)C1=NC(=S)NC(c2ccccc2)C1c1nc2ccccc2s1 (centres undefined),–,> 100,> 100,–,> 100,> 100,> 100,–,–,–,–,–,–,–
CCOP(=O)(OCC)C1CCCOC1=O (centres undefined),> 100,> 100,> 100,> 100,> 100,> 100,> 100,–,–,–,–,–,–,–
O=[N+]([O-])C=C(c1ccc(Cl)cc1)c1ccc(Cl)cc1,38,30.5,56.9,34,31,–,29.8,–,–,–,–,–,–,–
C[CH2][Ge]([CH2]C)([CH2]C)[O]C(=O)C(OC(C)=O)c1ccccc1 (centres undefined),> 100,> 100,–,> 100,> 100,> 100,> 100,> 100,> 100,–,31,> 100,> 100,> 100
COc1ccc2c3c([nH]c2c1[N+](=O)[O-])C(C)N(Cc1ccccc1)CC3 (centres undefined),> 100,28.1,23.4,7.56,59.5,–,8.73,–,–,–,–,–,–,–
O=C(/C=C/c1ccccc1F)c1ccc(Cl)c(Cl)c1,> 87,> 100,77,> 75.6,> 100,> 100,–,–,–,–,–,–,–,–
c1ccc(C2OC3(CCC[C@H]4C[C@H]43)O[C@H]2c2ccccc2)cc1 (some centres undefined),> 100,> 100,63.9,96.9,–,> 100,> 100,–,–,–,–,–,–,–
CCc1cccc(C)c1NC(=O)C(=O)CC(=O)c1ccc(Cl)s1,> 100,> 100,> 100,–,> 100,> 100,> 100,–,–,–,–,–,–,–
CC1/C(=N\O)CC(c2ccccc2)N(C)C1c1ccccc1 (centres undefined),> 100,> 100,> 100,–,> 100,> 100,> 100,–,–,–,–,–,–,–
O=C1C=CC=C/C1=C1/SC(c2ccccc2)=C(O)N1c1ccccc1,> 100,–,–,–,> 100,> 100,> 100,–,–,–,–,–,–,–
CN(c1ccc(C(=O)c2ccc(N(C)S(C)(=O)=O)cc2)cc1)S(C)(=O)=O,–,–,> 100,> 100,> 100,> 100,> 100,–,–,–,–,–,–,–
CC1=C(C(=O)Nc2ccccc2)C(c2cccc3ccccc23)C(C(=O)Nc2ccccc2)=C(C)N1,30.5,32.5,43.8,–,34.7,38.5,31.3,–,–,–,–,–,–,–
